Reference: PMC10004777 (Molecules, 2023)

Key:
HK-2 cells = assay: Cell viability (MTT) assay, HK-2 normal cells (cytotoxicity); format: cell-based
Protocol: (§1) The cell lines present in this study were obtained from Procell Life Science & Technology Co. Ltd. MCF-7, HepG2 and SJSA-1 cells were cultured in DMEM medium (DMEM, Gibco) supplemented with 10% fetal bovine serum (FBS, Gibco), 1% penicillin-streptomycin (Hyclone) at 37℃ in a humid environment with 5% CO2. HK-2 cells were cultured in DMEM/F12 (1:1) medium and placed in incubators in the same environment.
(§2) Cell viability was determined by MTT assay. MCF-7, HepG2, SJSA-1 and HK-2 cells (6 × 10^3 cells /well) were seeded in 96-well plates with serum-free medium for 24 h. […] After 48 or 72 h, 10 μL MTT (5 mg/mL, Beyotime) was added and incubated at 37 °C for 4 h. Then 100 μL of lysate was added. After complete dissolution of the crystal, the absorbance was measured at 540 nm and expressed as the average percentage of absorbance between treated and control cells. The value for control cells was set at 100%. Cell survival rate was calculated as the ratio of the absorbance of the cells and negative control after minus the blank absorbance respectively.

[1] = test system: MDM2, p53 protein and Bcl-2/Bax in MCF-7 cells; assay: Western blot protein expression, MCF-7; format: cell-based; conditions: MCF-7, 24 h
Source text: (§3) In the introduction section, we introduced that the concept that the MDM2-p53 pathway can induce cell apoptosis by up-regulating the expression of p53 protein to inhibit the proliferation of tumor cells, and by blocking the interaction of MDM2 and p53, the activation of p53 results in transcription of MDM2 mRNA, leading to robust MDM2 protein accumulation. In order to verify the effect of A2 on this pathway, we examined the effect of A2 on the protein level of MDM2, p53 protein and Bcl-2/Bax related to apoptosis, as shown in Figure 5. […] The level of Bcl-2/Bax decreased which was consistent with the apoptosis of MCF-7 cells induced by A2. We also investigated the effect of A2 on the SJSA-1 cell line which overexpresses MDM2.
(§4) For Western blot analysis, MCF-7 and SJSA-1 cells were treated with different concentrations of A2 for 24 h. The total cell protein was extracted, and proteins were isolated using 10% SDS-PAGE gel system. The proteins on the gel were transferred to PVDF membrane, blocked in 5% BSA at room temperature for 2 h, incubated in primary antibody dilution at 4 °C overnight, and washed with TBST for 3 times, 10 min each. Then, they were transferred to dilute release solution of secondary antibody and incubated at room temperature for 2 h. ECL chemiluminescence development solution (Beyotime, BeyoECL star) was added uniformly and detected on gel imaging system (Clinx ChemiScope, China). Antibodies for blotting were MDM2 (abcam, ab16895), P53 (Proteintech, 10442-1-AP), Bcl-2 (CST, 15071S), Bax (CST, 2772T) and β-actin (abcam, ab8226).

[2] = test system: MCF-7 breast cancer cells; assay: Cell viability (MTT) assay, MCF-7; format: cell-based; conditions: for anti-proliferation activity on MCF-7 compared with GAA: MCF-7, 48 h
Protocol: MCF-7 is a commonly used tumor cell line.
as §1, §2

MDM2 protein [3] = biological target: T1, MDM2 protein (Homo sapiens, UniProt Q00987); assay: Surface plasmon resonance (SPR) binding assay
T1 construct: purchased Protintech (so in the source)
T1 sequence (Q00987 whole entry): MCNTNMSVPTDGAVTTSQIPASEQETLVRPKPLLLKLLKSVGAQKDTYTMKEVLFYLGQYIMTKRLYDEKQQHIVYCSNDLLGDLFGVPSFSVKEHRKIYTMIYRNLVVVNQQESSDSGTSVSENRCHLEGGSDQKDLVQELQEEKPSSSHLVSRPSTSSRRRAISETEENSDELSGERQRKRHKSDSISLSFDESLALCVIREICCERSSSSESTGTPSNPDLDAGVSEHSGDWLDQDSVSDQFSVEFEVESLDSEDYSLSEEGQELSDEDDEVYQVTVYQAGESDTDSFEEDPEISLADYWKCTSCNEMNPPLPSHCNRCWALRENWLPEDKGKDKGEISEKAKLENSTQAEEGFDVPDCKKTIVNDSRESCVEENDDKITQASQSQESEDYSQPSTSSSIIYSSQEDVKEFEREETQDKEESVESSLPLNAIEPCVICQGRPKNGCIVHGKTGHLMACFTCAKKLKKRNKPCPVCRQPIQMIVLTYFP
Protocol: In order to speculate whether A2 effects the p53-MDM2 pathway by binding with MDM2 to inhibit the interaction between MDM2 and p53, we carried out in silico and in vitro binding experiments. […] We used the S-value to evaluate the binding degree of the compound and MDM2 in the molecular docking experiments. The higher the absolute value of this number, the stronger the binding force.
MDM2 protein (5 mg/mL, Protintech) was immobilized on a PCH sensor chip (Octet) and preactivated with EDC/NHS mixture for 420 s at a flow rate of 10 μL/min. A2 was diluted to 100, 50, 25, 12.5, 6.25, 3.13, 0 μM with PBST buffer containing 1% DMSO. The binding time was 600 s, and the flow rate was 20 μL/min. The dissociation time was 180 s, and the affinity constant KD value was obtained by computer fitting and steady-state analysis.

[4] = test system: MDM2 and p53 protein in SJSA-1 cell line; assay: Western blot protein expression, SJSA-1; format: cell-based; conditions: SJSA-1, 24 h, 12.5, 25 and 50 µM
Source text: as §3
as §4, with “Then, they were transferred to dilute release solution of secondary antibody and incubated at room temperature for 2 h.” left out, “Antibodies for blotting were MDM2 (abcam, ab16895), P53 (Proteintech, 10442-1-AP), Bcl-2 (CST, 15071S), Bax (CST, 2772T) and β-actin (abcam, ab8226).” left out

[5] = test system: osteosarcoma cell line SJSA-1; assay: Cell viability (MTT) assay, SJSA-1; format: cell-based; conditions: for anti-proliferation activity on SJSA-1 (in words): SJSA-1, 72 h
Protocol: (§5) To investigate the selectivity of these derivatives towards different tumor cell lines, we also selected HepG2 and osteosarcoma cell line SJSA-1 cells to evaluate the anti-proliferation activity of the derivatives. […] Except for compounds A2 and A11, the effects of other compounds on SJSA-1 were not strong.
as §1, §2

SJSA-1 cells = assay: Flow cytometry apoptosis, Annexin V-FITC/PI staining; format: cell-based; conditions: 24 h
Protocol: Cells were stained with Annexin V-FITC and propidium iodide.
To determine the apoptosis rate, an Annexin V-FITC/PI double staining apoptosis assay kit (Beyotime) was used to detect apoptotic cells by flow cytometry (BD FACSALOBUR), according to the manufacturer’s instructions. Briefly, SJSA-1 cells were treated with 0.1% DMSO, 12.5, 25, and 50 μM of A2 for 24 h. After harvesting, the cells were incubated with 5 μL Annexin V-FITC for 15 min and 10 μL PI for 5 min at 4 °C under dark conditions. Flow cytometry was then performed to analyze the apoptosis rate. Data were analyzed by using BD FACSDiva 8.0.1.

HepG2 cells = assay: Cell viability (MTT) assay, HepG2; format: cell-based; conditions: for anti-proliferation activity on HepG2 (in words): HepG2, 48 h
Protocol: as §5, §1, §2

MDM2 protein [6] = biological target: T1, MDM2 protein; design: method as in PMID 22380771; conditions: virtual screening prediction; read-out: Ki (predicted affinity with MDM2 protein); cited from earlier work

SMILES	melting point	anti-proliferation activity on MCF-7 compared with GAA [2]	anti-proliferation activity on SJSA-1 (in words) [5]	anti-proliferation activity on HepG2 (in words) (HepG2 cells)	Viability of Cells (% of Control) (HK-2 cells; 50 µM)	Viability of Cells (% of Control) (HK-2 cells; 100 µM)	Viability of Cells (% of Control) ([2]; 25 µM)	Viability of Cells (% of Control) ([2]; 50 µM)	Viability of Cells (% of Control) ([2]; 100 µM)	Viability of Cells (% of Control) ([5]; 50 µM)	Viability of Cells (% of Control) ([5]; 100 µM)	Viability of Cells (% of Control) (HepG2 cells; 25 µM)	Viability of Cells (% of Control) (HepG2 cells; 50 µM)	other results
CCCCCCNC(=O)[C@H](C)CC(=O)C[C@@H](C)[C@H]1C[C@H](O)[C@@]2(C)C3=C(C(=O)C[C@]12C)[C@@]1(C)CCC(=O)C(C)(C)[C@@H]1C[C@@H]3O [Compound A2, (n-hexyl)-(7β,15α,25R)-7,15-Dihydroxy-3,11,23-Trioxolanost-8-en-26-oic Amide]	129.9 to 131.3 °C	significant anti-proliferation activities	potent inhibition	potent anti-proliferation activity										Viability of Cells (% of Control) (HK-2 cells; HK-2 normal cells, 50 µM, 48 h, MTT): 97.1 ± 4.1 % of Control; Viability of Cells (% of Control) (HK-2 cells; HK-2 normal cells, 100 µM, 48 h, MTT): 90.9 ± 3.0 % of Control; level of Bcl-2/Bax [1]: decreased; MDM2 protein level ([1]; 50 µM): increasing trend; p53 protein level ([1]; 50 µM): increasing trend; Viability of Cells (% of Control) ([2]; MCF-7, 25 µM, 48 h, MTT): 66.76 ± 6.2 % of Control; Viability of Cells (% of Control) ([2]; MCF-7, 50 µM, 48 h, MTT): 59.4 ± 4.7 % of Control; Viability of Cells (% of Control) ([2]; MCF-7, 100 µM, 48 h, MTT): 50.37 ± 1.7 % of Control; Kd (MDM2 protein [3]; immobilized MDM2, steady-state analysis): 1680 nM; Kd (MDM2 protein [3]; printed in Figure 7): 1648 ± 7 nM; expression of MDM2 [4]: increased in a dose-dependent manner; expression of p53 protein [4]: increased in a dose-dependent manner; Viability of Cells (% of Control) ([5]; SJSA-1, 50 µM, 72 h, MTT): 51.4 ± 1.7 % of Control; Viability of Cells (% of Control) ([5]; SJSA-1, 100 µM, 72 h, MTT): 28.5 ± 3.4 % of Control; proportion of early phase apoptosis cells (Q3) (SJSA-1 cells; SJSA-1, 12.5 µM): 11.6%; proportion of early phase apoptosis cells (Q3) (SJSA-1 cells; SJSA-1, 25 µM): 12.3%; proportion of early phase apoptosis cells (Q3) (SJSA-1 cells; SJSA-1, 50 µM): 18.7%; Viability of Cells (% of Control) (HepG2 cells; HepG2, 25 µM, 48 h, MTT): 78.8 ± 1.7 % of Control; Viability of Cells (% of Control) (HepG2 cells; HepG2, 50 µM, 48 h, MTT): 48.4 ± 2.1 % of Control
Cc1ccc(CCNC(=O)[C@H](C)CC(=O)C[C@@H](C)[C@H]2C[C@H](O)[C@@]3(C)C4=C(C(=O)C[C@]23C)[C@@]2(C)CCC(=O)C(C)(C)[C@@H]2C[C@@H]4O)cc1 [Compound A10, (4-Methylphenethyl)-(7β,15α,25R)-7,15-Dihydroxy-3,11,23-Trioxolanost-8-en-26-oic Amide]	221.9 to 223 °C				110.9 ± 9.6 % of Control	91.1 ± 5.5 % of Control	120.8 ± 4.8 % of Control	118.3 ± 6.0 % of Control	104.1 ± 2.2 % of Control	80.0 ± 2.7 % of Control	75.6 ± 4.8 % of Control	57.9 ± 0.5 % of Control	58.8 ± 1.4 % of Control	
C[C@H](CC(=O)C[C@@H](C)[C@H]1C[C@H](O)[C@@]2(C)C3=C(C(=O)C[C@]12C)[C@@]1(C)CCC(=O)C(C)(C)[C@@H]1C[C@@H]3O)C(=O)NCCc1ccc(F)cc1 [Compound A11, (4-Fluorophenethyl)-(7β,15α,25R)-7,15-Dihydroxy-3,11,23-Trioxolanost-8-en-26-oic Amide]	188.1 to 189 °C		some selectivity for SJSA-1		89.8 ± 9.6 % of Control	86.9 ± 2.7 % of Control	100.5 ± 2.5 % of Control	101.8 ± 0.2 % of Control	58.4 ± 5.5 % of Control	56.1 ± 8.7 % of Control	41.9 ± 3.1 % of Control	78.5 ± 3.0 % of Control	69.1 ± 2.0 % of Control	
C[C@H](CC(=O)C[C@@H](C)[C@H]1C[C@H](O)[C@@]2(C)C3=C(C(=O)C[C@]12C)[C@@]1(C)CCC(=O)C(C)(C)[C@@H]1C[C@@H]3O)C(=O)NCCc1ccc(Cl)cc1 [Compound A12, (4-Chlorophenethyl)-(7β,15α,25R)-7,15-Dihydroxy-3,11,23-Trioxolanost-8-en-26-oic Amide]	195.4 to 196.1 °C				124.1 ± 2.6 % of Control	111.2 ± 6.5 % of Control	119.0 ± 3.4 % of Control	110.5 ± 6.0 % of Control	102.9 ± 3.8 % of Control	73.5 ± 1.2 % of Control	65.5 ± 1.5 % of Control	29.1 ± 0.4 % of Control	25.6 ± 0.8 % of Control	inhibition at 50 µM (HepG2 cells; Homo sapiens, HepG2, 50 µM (printed: below 50 µM), 48 h, read-out: inhibition rate of HepG2): 74.4%
C[C@H](CC(=O)C[C@@H](C)[C@H]1C[C@H](O)[C@@]2(C)C3=C(C(=O)C[C@]12C)[C@@]1(C)CCC(=O)C(C)(C)[C@@H]1C[C@@H]3O)C(=O)N1CCN(c2ccccc2)CC1 [Compound A15, (4-Phenylpiperazin-1-yl)-(7β,15α,25R)-7,15-Dihydroxy-3,11,23-Trioxolanost-8-en-26-oic Amide]	229.4 to 229.9 °C	significant anti-proliferation activities		weaker anti-proliferation effect	123.3 ± 5.5 % of Control	111.0 ± 8.7 % of Control	74.3 ± 5.2 % of Control	70.4 ± 1.5 % of Control	66.5 ± 1.4 % of Control	75.9 ± 0.9 % of Control	83.5 ± 0.8 % of Control	77.1 ± 2.1 % of Control	99.3 ± 0.2 % of Control	
CC(=O)O[C@@H]1C(=O)C2=C(C(=O)C[C@H]3C(C)(C)C(=O)CC[C@]23C)[C@]2(C)C(=O)C[C@H]([C@H](C)CC(=O)CC(C)C(=O)O)[C@@]12C (some centres unmarked) [ganoderic acid F]														Ki (MDM2 protein [6]): 212 nM
